The subject of data set [1] is Haemophilis influenzae strain 9787 (a strain producing β-lactamase). The data set can be described thus: In vitro antibacterial activity, agar plate dilution method. The following applies: read-out: Minimum Concentration to Inhibit Growth of the Employed Bacteria C. The format is cell-based. The method, then: (§1) To assess the antibacterial activities of the compounds, the minimum concentrations (μg/ml) of the compounds to inhibit growth of various pathogenic bacteria were determined by agar plate dilution method. In this Table, the employed bacteria A, B, and C were as follow: • A: Staphylococcus aureus • B: Streptococcus pneumoniae • C: Haemophilis influenzae strain 9787 (a strain producing β-lactamase)

In data set [2] the test system is Streptococcus pneumoniae. The description is as above. The format is cell-based. The following applies: read-out: Minimum Concentration to Inhibit Growth of the Employed Bacteria B. The method, then: as §1
Data set [3] deals with Staphylococcus aureus. Described as above. The format is cell-based. The settings on record: read-out: Minimum Concentration to Inhibit Growth of the Employed Bacteria A. The method, then: as §1
Data set [4] can be described thus: Pharmacokinetics, plasma concentration by bioassay after subcutaneous injection. The following applies: mouse, sc, mice (ddY, male), 20 mg/kg subcutaneous; for AUC: read-out: AUCall (area under the concentration-time curve in plasma); for Cmax: read-out: Cmax (maximal plasma concentration); for half-life: read-out: T1/2 (half-life in plasma concentration) (converted). The format is in vivo. The method, then:
The compounds of the present invention compound (20 mg/kg) was subcutaneously injected to mice (n=3, ddY, male, purchased from SLC Japan). The plasma concentration of the compound was determined by a bioassay method at 5, 15, and 30 min, and 1, 1.5, and 2 hr after administration. In the Table, Cmax, T1/2, and AUCall indicate the maximal plasma concentration, half-life in plasma concentration, and area under the concentration-time curve in plasma of the compound, respectively.

Setting [5] is: C: Haemophilis influenzae strain 9787 (β-lactamase producing), agar plate dilution.
Where [6] appears, read: B: Streptococcus pneumoniae, agar plate dilution.
Where [7] appears, read: A: Staphylococcus aureus, agar plate dilution.

Each structure is given as a SMILES string. Converted amounts (≈) assume the structure as drawn. Counter-ions that a name gives are not always drawn. Like-named read-outs stand apart in the source and are kept apart here.

For the compound `CNC(=O)c1csc(N2CC(SC3=C(C(=O)[O-])N4C(=O)[C@H]([C@@H](C)O)[C@H]4[C@H]3C)C2)n1.[Na+]` [Example 5, (1R,5S,6S)-2-[1-(4-N-Methylcarbamoyl-1,3-thiazol-2-yl)azetidin-3-yl]thio-6-[(R)-1-hydroxyethyl]-1-methylcarbapen-2-em-3-carboxylic acid sodium salt], the figures for the MIC in data set [1] (setting [5]), in data set [2] (setting [6]) and in data set [3] (setting [7]) were 0.2 µg/mL, 0.2 µg/mL and 0.05 µg/mL, respectively.
As for `C[C@@H](O)[C@H]1C(=O)N2C(C(=O)[O-])=C(SC3CN(c4nc(C(=O)N5CCSCC5)cs4)C3)[C@H](C)[C@H]12.[Na+]` [Example 25, (1R,5S,6S)-2-[1-(4-Thiomorpholinocarbonyl-1,3-thiazol-2-yl)azetidin-3-yl]thio-6-[(R)-1-hydroxyethyl]-1-methylcarbapen-2-em-3-carboxylic acid sodium salt], the results for the MIC in data set [1] (setting [5]), in data set [2] (setting [6]) and in data set [3] (setting [7]) were 0.39 µg/mL, 0.1 µg/mL and 0.025 µg/mL, respectively.
Regarding `C[C@@H](O)[C@H]1C(=O)N2C(C(=O)O)=C(SC3CN(c4nc(C(=O)N[C@@H]5CCNC5)co4)C3)[C@H](C)[C@H]12` [Example 81, (1R,5S,6S)-2-{1-[4-((3R)-pyrrolidin-3-ylcarbamoyl)-1,3-oxazol-2-yl]azetidin-3-yl}thio-6-[(R)-1-hydroxyethyl]-1-methylcarbapen-2-em-3-carboxylic acid], the MIC in data set [1] (setting [5]) is 0.39 µg/mL (≈ 0.817 µM); in data set [2] (setting [6]) it was 0.2 µg/mL (≈ 0.419 µM); in data set [3] (setting [7]), no more than 0.012 µg/mL.
The corresponding values for `C[C@@H](O)[C@H]1C(=O)N2C(C(=O)[O-])=C(SC3CN(c4nc(C(=O)N(C)C)cs4)C3)[C@H](C)[C@H]12.[Na+]` [Example 6, (1R,5S,6S)-2-[1-(4-N,N-Dimethylcarbamoyl-1,3-thiazol-2-yl)azetidin-3-yl]thio-6-[(R)-1-hydroxyethyl]-1-methylcarbapen-2-em-3-carboxylic acid sodium salt] are 0.2 µg/mL, 0.2 µg/mL and 0.05 µg/mL.
The corresponding values for `C[C@@H](O)[C@H]1C(=O)N2C(C(=O)[O-])=C(S[C@@H]3CCN(c4nc(C(N)=O)cs4)C3)[C@H](C)[C@H]12.[Na+]` [Example 19, (1R,5S,6S)-2-[(3R)-1-(4-Carbamoyl-1,3-thiazol-2-yl)pyrrolidin-3-yl]thio-6-[(R)-1-hydroxyethyl]-1-methylcarbapen-2-em-3-carboxylic acid sodium salt] are 0.1 µg/mL, 0.2 µg/mL and 0.05 µg/mL.
As to `C[C@@H](O)[C@H]1C(=O)N2C(C(=O)[O-])=C(SC3CN(c4nc(C#N)cs4)C3)[C@H](C)[C@H]12.[Na+]` [Example 4, (1R,5S,6S)-2-[1-(4-Cyano-1,3-thiazol-2-yl)azetidin-3-yl]thio-6-[(R)-1-hydroxyethyl]-1-methylcarbapen-2-em-3-carboxylic acid sodium salt], in data set [4] (in vivo), the AUC came out at 165000 ng·h/mL, the Cmax was determined as 157 µg/mL and the half-life was 61.2 min. Besides, the MIC in data set [1] turned out to be 0.2 µg/mL. Further, the MIC in data set [2] (Streptococcus pneumoniae) came to 0.2 µg/mL. For the same compound, in data set [3] (Staphylococcus aureus), the MIC came to 0.05 µg/mL.
In the case of `C[C@@H](O)[C@H]1C(=O)N2C(C(=O)O)=C(SC3CN(c4nc(C(=O)NC5CCNCC5)cs4)C3)[C@H](C)[C@H]12` [Example 56, (1R,5S,6S)-2-{1-[4-(piperidin-4-ylcarbamoyl)-1,3-thiazol-2-yl]azetidin-3-yl}thio-6-[(R)-1-hydroxyethyl]-1-methylcarbapen-2-em-3-carboxylic acid], the MIC in data set [1] (setting [5]) amounted to 0.2 µg/mL (≈ 0.394 µM); in data set [2] (setting [6]), 0.2 µg/mL (≈ 0.394 µM); in data set [3] (setting [7]), 0.05 µg/mL (≈ 0.0985 µM).
As for `C[C@@H](O)[C@H]1C(=O)N2C(C(=O)[O-])=C(SC3CN(c4nc(C(N)=O)cs4)C3)[C@H](C)[C@H]12.[Na+]` [Example 3, (1R,5S,6S)-2-[1-(4-Carbamoyl-1,3-thiazol-2-yl)azetidin-3-yl]thio-6-[(R)-1-hydroxyethyl]-1-methylcarbapen-2-em-3-carboxylic acid sodium salt], in data set [4], the AUC is 83900 ng·h/mL, the Cmax amounted to 127 µg/mL and the half-life is 15 min. The MIC in data set [1] (setting [5]) stood at 0.1 µg/mL. Also, the MIC in data set [2] (setting [6]) was found to be 0.2 µg/mL. The MIC in data set [3] (setting [7]) was 0.05 µg/mL.
On to `C[C@@H](O)[C@H]1C(=O)N2C(C(=O)O)=C(SC3CN(c4nc(CNC(=O)c5ccccc5)cs4)C3)[C@H](C)[C@H]12` [Example 69, (1R,5S,6S)-2-{1-[4-(benzoylaminomethyl)-1,3-thiazol-2-yl]azetidin-3-yl}thio-6-[(R)-1-hydroxyethyl]-1-methylcarbapen-2-em-3-carboxylic acid sodium salt], for which the MIC in data set [1] (setting [5]) is 0.78 µg/mL; in data set [2] (setting [6]) it was no more than 0.012 µg/mL; in data set [3] (setting [7]) it was no more than 0.012 µg/mL.
For the compound `C[C@@H](O)[C@H]1C(=O)N2C(C(=O)[O-])=C(SC3CN(c4nc(C(=O)N5CCC5)cs4)C3)[C@H](C)[C@H]12.[Na+]` [Example 24, (1R,5S,6S)-2-[1-(4-Azetidinocarbonyl-1,3-thiazol-2-yl)azetidin-3-yl]thio-6-[(R)-1-hydroxyethyl]-1-methylcarbapen-2-em-3-carboxylic acid sodium salt], the MIC in data set [1] (setting [5]) is 0.05 µg/mL; in data set [2] (setting [6]), 0.025 µg/mL; in data set [3] (setting [7]), no more than 0.012 µg/mL.
With `C[C@@H](O)[C@H]1C(=O)N2C(C(=O)O)=C(SC3CN(c4nc(CNC(=O)c5ccco5)cs4)C3)[C@H](C)[C@H]12` [Example 72, (1R,5S,6S)-2-(1-{4-[(furan-2-carbonylamino)methyl]-1,3-thiazol-2-yl}azetidin-3-yl)thio-6-[(R)-1-hydroxyethyl]-1-methylcarbapen-2-em-3-carboxylic acid sodium salt], the MIC is 0.2 µg/mL in data set [1] (setting [5]), 0.025 µg/mL in data set [2] (setting [6]) and no more than 0.012 µg/mL in data set [3] (setting [7]).
`C[C@@H](O)[C@H]1C(=O)N2C(C(=O)[O-])=C(SC3CN(c4nc(C(=O)N5CCOCC5)cs4)C3)[C@H](C)[C@H]12.[Na+]` [Example 11, (1R,5S,6S)-2-[1-(4-Morpholinocarbonyl-1,3-thiazol-2-yl)azetidin-3-yl]thio-6-[(R)-1-hydroxyethyl]-1-methylcarbapen-2-em-3-carboxylic acid sodium salt]: in data set [4], the AUC is 40400 ng·h/mL, the Cmax is 56.6 µg/mL and the half-life is 19.8 min.
With `C[C@@H](O)[C@H]1C(=O)N2C(C(=O)O)=C(SC3CN(c4nc(C(=O)N[C@H]5CCNC5)co4)C3)[C@H](C)[C@H]12` [Example 80, (1R,5S,6S)-2-{1-[4-((3S)-pyrrolidin-3-ylcarbamoyl)-1,3-oxazol-2-yl]azetidin-3-yl}thio-6-[(R)-1-hydroxyethyl]-1-methylcarbapen-2-em-3-carboxylic acid], the MIC in data set [1] (setting [5]) came out at 0.39 µg/mL (≈ 0.817 µM); in data set [2] (setting [6]), 0.2 µg/mL (≈ 0.419 µM); in data set [3] (setting [7]), 0.025 µg/mL (≈ 0.0524 µM).
The corresponding values for `C[C@@H](O)[C@H]1C(=O)N2C(C(=O)[O-])=C(SC3CN(c4nc(C(N)=O)co4)C3)[C@H](C)[C@H]12.[Na+]` [Example 22, (1R,5S,6S)-2-[1-(4-Carbamoyl-1,3-oxazol-2-yl)azetidin-3-yl]thio-6-[(R)-1-hydroxyethyl]-1-methylcarbapen-2-em-3-carboxylic acid sodium salt] are 0.1 µg/mL, 0.2 µg/mL and 0.05 µg/mL.
The corresponding values for `C[C@@H](O)[C@H]1C(=O)N2C(C(=O)O)=C(SC3CN(c4nc(CNC(=O)c5cccs5)cs4)C3)[C@H](C)[C@H]12` [Example 71, (1R,5S,6S)-2-(1-{4-[(Thiophene-2-carbonylamino)methyl]-1,3-thiazol-2-yl}azetidin-3-yl)thio-6-[(R)-1-hydroxyethyl]-1-methylcarbapen-2-em-3-carboxylic acid sodium salt] are 0.39 µg/mL, no more than 0.012 µg/mL and no more than 0.012 µg/mL.

The values are drawn from patent US7001897B2, “1-methylcarbapenem derivatives” (Sankyo Company, Limited, priority 2000, dated 2006).
